Biological target: T1, HIS-TGFβR1 T204D (Homo sapiens, UniProt P36897, T204D)
T1 sequence (P36897 34-503 T204D): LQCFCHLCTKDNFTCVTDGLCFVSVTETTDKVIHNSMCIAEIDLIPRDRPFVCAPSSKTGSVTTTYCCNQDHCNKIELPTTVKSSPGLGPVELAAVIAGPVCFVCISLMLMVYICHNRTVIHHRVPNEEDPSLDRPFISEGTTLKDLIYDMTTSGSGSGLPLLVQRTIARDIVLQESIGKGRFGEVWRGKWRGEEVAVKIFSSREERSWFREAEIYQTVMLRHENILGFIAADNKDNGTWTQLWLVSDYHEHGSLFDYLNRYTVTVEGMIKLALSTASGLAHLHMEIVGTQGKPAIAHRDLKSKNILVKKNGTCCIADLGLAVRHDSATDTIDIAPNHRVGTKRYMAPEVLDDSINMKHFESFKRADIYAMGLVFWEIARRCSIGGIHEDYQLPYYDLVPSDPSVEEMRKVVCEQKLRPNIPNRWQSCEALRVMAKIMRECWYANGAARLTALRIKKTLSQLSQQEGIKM
Experiment: HTRF probe-displacement assay with HIS-TGFβR1 T204D
Assay type: binding
Conditions: 1 nM HIS-TGFβR1 T204D, labeled probe at Kd, 1 hour at room temperature
Method: The reaction is incubated for 1 hour at room temperature and the HTRF signal was measured on an Envision plate reader (Ex: 340 nm; Em: 520 nm/495 nm). Inhibition data were calculated by comparison to no enzyme control reactions for 100% inhibition and vehicle-only reactions for 0% inhibition. The final concentration of reagents in the assay are 1 nM HIS-TGFβR1 T204D or HIS-TGFβR2 WT, 0.2 nM anti-HIS detection antibody, labeled small molecule probe (at Kd) and 0.5% DMSO. Dose response curves were generated to determine the concentration required inhibiting 50% of kinase activity (IC50). Compounds were dissolved at 10 mM in dimethylsulfoxide (DMSO) and evaluated at eleven concentrations. IC50 values were derived by non-linear regression analysis.

| IC50 [µM] | Compound |
| --- | --- |
| 0.153 | CC(C)(O)c1[nH]nc(-c2ccc(F)cc2)c1-c1ccc2nccn2c1 [Example 137, 2-(3-(4-fluorophenyl)-4-(imidazo[1,2-a]pyridin-6-yl)-1H-pyrazol-5-yl)propan-2-ol] |
| 0.012 | O=C(O)c1cnc2ccc(-c3c[nH]nc3-c3ccc(F)cc3)cn12 [Example 60, 6-(3-(4-fluorophenyl)-1H-pyrazol-4-yl)imidazo[1,2-a]pyridine-3-carboxylic acid] |
| 0.465 | Nc1cc(-c2c[nH]nc2-c2ccc(F)cc2)cn2ccnc12 [Example 32, 6-(3-(4-fluorophenyl)-1H-pyrazol-4-yl)imidazo[1,2-a]pyridin-8-amine] |
| 0.173 | N#Cc1cnc2ccc(-c3c(-c4ccc(F)cc4)nn4c3COCC4)cn12 [Example 110, 6-(2-(4-fluorophenyl)-6,7-dihydro-4H-pyrazolo[5,1-c][1,4]oxazin-3-yl)imidazo[1,2-a]pyridine-3-carbonitrile] |
| 0.041 | N#Cc1cnc2ccc(-c3c(-c4ccc(F)cc4)n[nH]c3C(F)(F)F)cn12 [Example 105, 6-(3-(4-fluorophenyl)-5-(trifluoromethyl)-1H-pyrazol-4-yl)imidazo[1,2-a]pyridine-3-carbonitrile] |
| 0.01 | CC(C)(O)c1cnc2ccc(-c3c(-c4ccc(F)cc4)n[nH]c3C3CC3)cn12 [Example 89, 2-(6-(5-cyclopropyl-3-(4-fluorophenyl)-1H-pyrazol-4-yl)imidazo[1,2-a]pyridin-3-yl)propan-2-ol] |
| 1.13 | Cn1nc(C(F)(F)F)c(-c2ccc3ncc(C(N)=O)n3c2)c1-c1ccc(F)cc1 [Example 109, 6-(5-(4-fluorophenyl)-1-methyl-3-(trifluoromethyl)-1H-pyrazol-4-yl)imidazo[1,2-a]pyridine-3-carboxamide] |
| 0.147 | Fc1ccc(-c2n[nH]c(C(F)(F)F)c2-c2ccc3nccn3c2)cc1 [Example 107, 6-(3-(4-fluorophenyl)-5-(trifluoromethyl)-1H-pyrazol-4-yl)imidazo[1,2-a]pyridine] |
| 3.81 | CC(C)(O)c1cnc2ccc(-c3c(-c4ccc(F)cc4)nn4c3COCC4)cn12 [Example 113, 2-(6-(2-(4-fluorophenyl)-6,7-dihydro-4H-pyrazolo[5,1-c][1,4]oxazin-3-yl)imidazo[1,2-a]pyridin-3-yl)propan-2-ol] |
| 0.058 | Cn1nc(C2CC2)c(-c2ccc3ncc(C(N)=O)n3c2)c1-c1ccc(F)cc1 [Example 95, 6-(3-cyclopropyl-5-(4-fluorophenyl)-1-methyl-1H-pyrazol-4-yl)imidazo[1,2-a]pyridine-3-carboxamide] |
| 0.05 | Clc1ccc(-c2n[nH]c(C3CC3)c2-c2ccc3nccn3c2)cc1 [Example 98, 6-(3-(4-chlorophenyl)-5-cyclopropyl-1H-pyrazol-4-yl)imidazo[1,2-a]pyridine] |
| 0.025 | CC(=O)Nc1cnc2ccc(-c3c[nH]nc3-c3ccc(F)cc3)nn12 [Example 58, N-(6-(3-(4-fluorophenyl)-1H-pyrazol-4-yl)imidazo[1,2-b]pyridazin-3-yl)acetamide] |
| 0.054 | CC(C)c1[nH]nc(-c2ccc(Cl)cc2)c1-c1ccc2ncc(C#N)n2c1 [Example 75, 6-(3-(4-chlorophenyl)-5-isopropyl-1H-pyrazol-4-yl)imidazo[1,2-a]pyridine-3-carbonitrile] |
| 1.76 | N#Cc1cnc2ccc(-c3c(-c4ccc(F)cc4)n[nH]c3C(=O)O)cn12 [Example 129] |
| 0.115 | Cc1cccc(-c2c(-c3ccc4nccn4c3)c(C(C)C)nn2C)n1 [Example 120, 6-(3-isopropyl-1-methyl-5-(6-methylpyridin-2-yl)-1H-pyrazol-4-yl)imidazo[1,2-a]pyridine] |
| 0.008 | CC(O)c1cnc2ccc(-c3c(-c4ccc(F)cc4)n[nH]c3C3CC3)cn12 (stereo not drawn) [Example 91, 1-(6-(5-cyclopropyl-3-(4-fluorophenyl)-1H-pyrazol-4-yl)imidazo[1,2-a]pyridin-3-yl)ethanol] |
| 0.002 | CCOC(=O)c1[nH]nc(-c2cccc(C)n2)c1-c1ccc2nccn2c1 [Example 139, ethyl 4-(imidazo[1,2-a]pyridin-6-yl)-3-(6-methylpyridin-2-yl)-1H-pyrazole-5-carboxylate] |
| 9.86 | CC(C)c1nn(C)c(-c2ccc(F)cc2)c1-c1ccc2ncc(C(C)(C)O)n2c1 [Example 73, 2-(6-(5-(4-fluorophenyl)-3-isopropyl-1-methyl-1H-pyrazol-4-yl)imidazo[1,2-a]pyridin-3-yl)propan-2-ol] |

| IC50 [µM] | Compound |
| --- | --- |
| 0.001 | N#Cc1cnc2ccc(-c3c[nH]nc3-c3cccc(C(F)(F)F)n3)cn12 [Example 1, 6-(3-(6-(trifluoromethyl)pyridin-2-yl)-1H-pyrazol-4-yl)imidazo[1,2-a]pyridine-3-carbonitrile] |
| 0.024 | Cn1cc(-c2ccc3ncc(C#N)n3c2)c(-c2cccc(C(F)(F)F)n2)n1 [Example 9, 6-(1-methyl-3-(6-(trifluoromethyl)pyridin-2-yl)-1H-pyrazol-4-yl)imidazo[1,2-a]pyridine-3-carbonitrile] |
| 0.144 | CC(C)c1[nH]nc(-c2ccc(Cl)cc2)c1-c1ccc2nccn2c1 [Example 77, 6-(3-(4-chlorophenyl)-5-isopropyl-1H-pyrazol-4-yl)imidazo[1,2-a]pyridine] |
| 0.374 | CC(C)c1c(-c2ccc3ncc(C(C)(C)O)n3c2)c(-c2ccc(F)cc2)nn1C [Example 74, 2-(6-(3-(4-fluorophenyl)-5-isopropyl-1-methyl-1H-pyrazol-4-yl)imidazo[1,2-a]pyridin-3-yl)propan-2-ol] |
| 0.006 | CCc1[nH]nc(-c2ccc(F)cc2)c1-c1ccc2ncc(C#N)n2c1 [Example 81, 6-(5-ethyl-3-(4-fluorophenyl)-1H-pyrazol-4-yl)imidazo[1,2-a]pyridine-3-carbonitrile] |
| 0.145 | N#Cc1cnc2ccc(-c3c(-c4ccc(F)cc4)n[nH]c3C(N)=O)cn12 [Example 130, 4-(3-cyanoimidazo[1,2-a]pyridin-6-yl)-3-(4-fluorophenyl)-1H-pyrazole-5-carboxamide] |
| 0.001 | FC(F)(F)c1cccc(-c2n[nH]cc2-c2ccc3nccn3c2)n1 [Example 3, 6-(3-(6-(trifluoromethyl)pyridin-2-yl)-1H-pyrazol-4-yl)imidazo[1,2-a]pyridine] |
| 0.004 | OCc1cnc2ccc(-c3c(-c4ccc(F)cc4)n[nH]c3C3CC3)cn12 [Example 90, (6-(5-cyclopropyl-3-(4-fluorophenyl)-1H-pyrazol-4-yl)imidazo[1,2-a]pyridin-3-yl)methanol] |
| 0.027 | CC(=O)Nc1[nH]nc(-c2ccc(F)cc2)c1-c1ccc2ncc(C(N)=O)n2c1 [Example 143, 6-(5-acetamido-3-(4-fluorophenyl)-1H-pyrazol-4-yl)imidazo[1,2-a]pyridine-3-carboxamide] |
| 2.24 | Cn1nc(C2CC2)c(-c2ccc3ncc(F)n3c2)c1-c1ccc(F)cc1 [Example 104, 6-(3-cyclopropyl-5-(4-fluorophenyl)-1-methyl-1H-pyrazol-4-yl)-3-fluoroimidazo[1,2-a]pyridine] |
| 0.017 | CCc1[nH]nc(-c2ccc(F)cc2)c1-c1ccc2nccn2c1 [Example 83, 6-(5-ethyl-3-(4-fluorophenyl)-1H-pyrazol-4-yl)imidazo[1,2-a]pyridine] |
| 0.758 | CCOC(=O)c1[nH]nc(-c2ccc(F)cc2)c1-c1ccc2nccn2c1 [Example 132, ethyl 3-(4-fluorophenyl)-4-(imidazo[1,2-a]pyridin-6-yl)-1H-pyrazole-5-carboxylate] |
| 0.014 | Fc1ccc(-c2n[nH]c(C3CC3)c2-c2ccc3ncc(F)n3c2)cc1 [Example 102, 6-(5-cyclopropyl-3-(4-fluorophenyl)-1H-pyrazol-4-yl)-3-fluoroimidazo[1,2-a]pyridine] |
| 0.001 | Cc1cc(-c2n[nH]c(C3CC3)c2-c2ccc3nccn3c2)ccc1F [Example 101, 6-(5-cyclopropyl-3-(4-fluoro-3-methylphenyl)-1H-pyrazol-4-yl)imidazo[1,2-a]pyridine] |
| 0.281 | CCOC(=O)c1[nH]nc(-c2ccc(F)cc2)c1-c1ccc2ncc(C#N)n2c1 [Example 128, ethyl 4-(3-cyanoimidazo[1,2-a]pyridin-6-yl)-3-(4-fluorophenyl)-1H-pyrazole-5-carboxylate] |
| 0.022 | Cn1nc(-c2ccc(F)cc2)c(-c2ccc3ncc(C(N)=O)n3c2)c1C(F)(F)F [Example 108, 6-(3-(4-fluorophenyl)-1-methyl-5-(trifluoromethyl)-1H-pyrazol-4-yl)imidazo[1,2-a]pyridine-3-carboxamide] |
| 0.001 | Cc1cc(-c2n[nH]c(C(C)C)c2-c2ccc3nccn3c2)ccc1F [Example 80, 6-(3-(4-fluoro-3-methylphenyl)-5-isopropyl-1H-pyrazol-4-yl)imidazo[1,2-a]pyridine] |
| 0.187 | O=C(Nc1cnc2ccc(-c3c[nH]nc3-c3ccc(F)cc3)cn12)C(F)(F)F [Example 16, 2,2,2-trifluoro-N-(6-(3-(4-fluorophenyl)-1H-pyrazol-4-yl)imidazo[1,2-a]pyridin-3-yl)acetamide] |

Reference: patent publication US20190292179A1 (BRISTOL-MYERS SQUIBB COMPANY, priority 2016, published 2019)
